Here are results for two compounds from patent publication US4873088A, “Liposome drug delivery method and composition” (priority 1987, dated 1989).

The conditions of data set [1]: both compounds in the free form; cited from earlier work.
For data set [2], the system named is YAC-1 lymphoma cells. The data set is described as follows: Splenic NK activity against YAC-1 cells (51Cr release). In kind it is cell-based, mice. The method, then: Fresh spleen cells were added to ^51 Cr labeled YAC-1 cells at different effector to target cell ratios.
Data set [3] is described as follows: PEC ADM content by fluorescence after i.p. administration. In kind it is in vivo, mice. The method, then: ADM was extracted from 10^6 PEC/sample by sonication in 36.5% HCl: absolute ethanol (1:11) in an ice bath for 5 min. This sonicated lysate was centrifuged (12,150×g) for 20 min at 4-6 C. The supernatant was measured for fluorescence at 468 nm excitation and 585 nm emission using a Perkin-Elmer (Model 650-10S) spectrofluorometer.

Data set [4] can be described thus: Acute and chronic toxicity (LD50) after single i.v. dose in healthy mice. The note with it: mouse, in vivo, iv. The method, then: The toxicity of the three ADM preparations in Table 1 above was tested against healthy DMA 2J mice.
The data are expressed in terms of LD50, i.e. the dosage (in mg drug per kilogram of animal body weight) which produces death in half the animals receiving the drug. […] The number of mice available for determination of chronic toxicity (survival of acute toxicity) varied from between about 2 and 10 mice per group.

The subject of a further data set is IL-1. The data set is described as follows: IL-1 like activity of adherent PEC culture supernatants (thymocyte comitogenic assay). In kind it is cell-based, C3H/Hej mice. The method, then:
(§1) The cells were cultured for 18 hours with the concentrations of LPS indicated below in Table 4.
A standard thymocyte comitogenic assay for IL-1 was used to test 18 h adherent PEC culture supernatants for IL1 like activity. Thymopytes (5×10^5) from C3H/Hej mice were added in 0.1 ml/well to flat bottom, 96 well plates. An equal volume of adherent PEC culture supernatant was added for a final volume of 0.2 ml. To facilitate a proliferative response, the media was supplemented with PHA ([…]) and 2-mercaptoethanol ([…]). Cultures were incubated for 72 h. Four hours before harvesting, the cultures were pulsed with [^3 H]dThd (New England Nuclear, 2 Ci/mole; […]).
Cells were harvested on glass fiber filters with an Otto Hiller cell harvester. The radioactivity was measured by scintillation counting using a Beckmann counter (Model LS 7000). Thymidine uptake by the thymocytes was expressed as mean cpm±S.D.

Another data set concerns L1210 leukemia cells. The data set can be described thus: Acute therapeutic effect (mean survival time) in mice injected i.p. with 10^6 L1210 leukemia cells, i.v. ADM. In kind it is in vivo, DBA 2J mice. The note with it: one day after L1210. The procedure: The day of death of the animals was recorded, and the mean survival time of each group was calculated. Each group contained from between 6 and 10 mice.

Another data set relates to IL-2. The data set is described as follows: IL-2 activity of adherent PEC culture supernatants (IL-2 dependent CTCL-1 line). It counts as cell-based. The method, then:
The purpose is to determine if the enhanced macrophage tumoricidal activity and NK activity detailed above correlates with increases in either IL-1 or IL-2.
as §1
The procedure used for assaying IL-2 has been described (Ehrke, 1986). Briefly, using a long term, IL-2 dependent cytolytic T cell line (CTCL-1), 10^4 cells in 0.1 ml were added to 0.1 ml volumes of conditioned media from adherent PEC cultures. The cells were incubated for 24 h and pulsed with [^3 H]Thd ([…]) 4 h before harvest. Results were expressed as the arithmetic mean of cpm dThd uptake ±S.D. A semipurified, rat IL-2 preparation was used as a positive control.

Data set [5] concerns YAC-1 lymphoma cells. The data set can be described thus: PEC NK activity with and without anti-Asialo GM1 antibody + complement. The note with it: PEC 7 days after treatment; for NK activity, specific 51Cr release, Untreated: no antibody. It counts as cell-based, mice. The method, then:
In order to verify that the effector cells in the PEC population that were active against YAC-1 cells had.NK properties, PECs were treated with anti-Asialo GMI antiserum and complement in vitro prior to the 4 hr toxicity assay for PECs.
Anti-Asialo GM1 antibody was added directly to PEC in the microwells at a final dilution of 1:20. After 30 min on ice the cultured effector cells were spun down, supernatant removed and the cells resuspended. Low toxicity rabbit complement was added (final dilution 1:20) and the cultures incubated for 45 min. After 3 washings, the PECs (5×10^5) were cultures with 10^4 radio-labeled YAC-1 cells, and radioactivity released was assayed after 4 hours.

`Cc1c(C)c2c(c(C)c1O)CCC(C)(CCCC(C)CCCC(C)CCCC(C)C)O2` (stereo not drawn) [alpha-tocopherol (vitamin E), alpha-tocopherol]: the “cardiotoxicity of ADM (in words)” value in data set [1] is “reduce the cardiotoxicity of ADM in animals”.

As to `COc1cccc2c1C(=O)c1c(O)c3c(c(O)c1C2=O)C[C@@](O)(C(=O)CO)C[C@@H]3O[C@H]1C[C@H](N)[C@H](O)[C@H](C)O1` [free ADM, doxorubicin], the “duration of suppression of splenic NK (in words)” value in the data set with YAC-1 lymphoma cells [2] is recorded as “transient”. In the data set with YAC-1 lymphoma cells [2] (7 or 11 days before sacrifice), the “splenic NK suppression (in words)” value was “suppression was not observed”. The “splenic NK activity (in words)” value in the data set with YAC-1 lymphoma cells [2] (4 days following treatment) was “reduced”. For the same compound, the “ADM Equivalents in PEC” value in data set [3] (Day 4, i.p.) worked out at 4.2 ± 0.5 ng ADM/10^6 PECs; in data set [3] (Day 7, i.p.), 1.4 ± 0.4 ng ADM/10^6 PECs; in data set [3] (Day 11, i.p.), 0.2 ± 0.2 ng ADM/10^6 PECs. Moreover, the LD50 at 2880 h in data set [4] (death between 50 and 120 days, read-out: Mean LD50 ± S.D., chronic) was 12 ± 5 mg/kg. Also, the LD50 at 336 h in data set [4] (death within 14 days, read-out: Mean LD50 ± S.D., acute) amounted to 20 ± 5 mg/kg. Also, the “IL-1 activity (thymidine uptake by thymocytes)” value with IL-1 (LPS 0 ng/ml) was 9142 ± 1179 cpm; in the data set with IL-1 (LPS 0.001 ng/ml), 9693 ± 230 cpm; in the data set on IL-1 (LPS 0.1 ng/ml), 11588 ± 953 cpm. Also, the “dependence of IL-1-like activity on LPS (in words)” value in the data set on IL-1 (LPS 0.001 to 1,000 ng/ml) is “no significant increase in this activity from ADM PEC was observed with LPS exposure”. Further, the “Mean Survival Time ± S.D.” value is listed as 18.4 ± 1.8 days in the data set with L1210 leukemia cells (10 mg/kg ADM) and 12.2 ± 1.6 days in the data set on L1210 leukemia cells (20 mg/kg ADM). Besides, the figures for the “IL-2 activity (dThd uptake)” value with IL-2 (LPS 0 ng/ml) and in the data set on IL-2 (LPS 0.001-1000 ng/ml) were 285 ± 86 cpm and 286 ± 74 cpm, respectively. Besides, in the data set on IL-2 (with or without LPS activation), the “IL-2 activity (in words)” value is “about background”. Also, the “NK activity, specific 51Cr release, Asialo GM1 Antibody + Complement” value in the data set on YAC-1 lymphoma cells [5] (Exp. No. 1) amounted to 3.4 ± 0.9%; in the data set on YAC-1 lymphoma cells [5] (Exp. No. 2), 0.2 ± 0.8%. The “NK activity, specific 51Cr release, Untreated” value in the data set on YAC-1 lymphoma cells [5] (Exp. No. 1) was found to be 16.9 ± 2.6%; with YAC-1 lymphoma cells [5] (Exp. No. 2), 18.9 ± 1.4%.

By LD50 is commonly meant the dose expected to kill half of the subjects tested.
